Like-named read-outs stand apart in the source and are kept apart here.
Target: Benzodiazepine receptors (BDZ-Rs)
Assay: Inhibition of 3H-flunitrazepam (3H-FNZ) binding to washed rat cerebral cortical membranes
Description: Adult male Wistar rats weighing 250g were used for biochemical experiments.
Membrane preparations were carried out according to Medina et al. (1990). Briefly, brains were rapidly dissected out on ice and the different structures were homogenized in 10 volumes of 0.32 M sucrose and centrifuged at 900 x g for 10 min. The resulting supernatant was centrifuged at 100,000 x g for 30 min and the pellet washed twice in 25mM Tris HCl buffer pH 7.4 at 100,000 x g for 30 min,and stored at-20°C until used.
Binding affinities to BDZ-Rs were determined by the ability of the compounds to inhibit Hoffman-La Roche ^3H-flunitrazepam (^3H-FNZ) binding to extensively washed rat cerebal cortical membranes following the method as described by Levi de Stein, M. et al., Mol. Brain Res (1989),5, pp 9-15.
In brief, for each assay, triplicate samples of the membranes, containing 0.2 to 0.4 mg protein were suspended in a final volume of 1 ml of 0.25 mM Tris-HCl buffer, pH 7.3.
The incubation was carried out at 4°C for 60 min with 0.5 nM ^3H-FNZ. To study the binding saturation, a range of 0.3 to 10 nM ^3H-FNZ was used. Non-specific binding was determined in parallel incubations in the presence of 3µM FNZ, and represented 5-15% of total. The assays were terminated by filtration under vacuum through Whatman GF/A glass-fiber filters, and three washes with 3mL each of incubation medium. Filters were dried and counted after the addition of 5 mL of 2,5-diphenyloxazole/xylene as scintillation fluid.
The competition curves were analyzed using Graph-Pad Prism software.
Figures 1-5 show representative displacement curves of [^3H] flunitrazepam (0.5 nM) binding by different flavones to washed crude synaptosomal membranes from rat cerebral cortex.

[1] = Rat Cerebral Cortex membranes, 0.5 nM 3H-FNZ, means of 3-5 independent determinations, read-out: Ki^b
[2] = mean ± SEM from displacement curves of [3H] flunitrazepam binding to rat synaptosomal membranes, read-out: Ki
[3] = single representative displacement curve (Figures 1-5), [3H] flunitrazepam 0.5 nM, washed crude synaptosomal membranes from rat cerebral cortex, read-out: Ki

SMILES | Ki [1] [nM] | Ki [2] [nM] | Ki [3] [nM]
O=c1cc(-c2ccccc2)oc2ccc([N+](=O)[O-])cc12 [Compound A1, 6-nitroflavone] | 275 | 275 ± 41.1 | 315
O=c1cc(-c2cccc(Br)c2)oc2ccc([N+](=O)[O-])cc12 [Compound A5, 6-nitro-3'-bromoflavone] | 25 | 25.2 ± 2.46 | 21.8
O=c1cc(-c2cccc(Br)c2)oc2ccccc12 [Compound A3, 3'-bromoflavone] | 413 | 414 ± 46 | 427
O=c1cc(-c2cccc(Br)c2)oc2ccc(Br)cc12 [Compound A4, 6,3'-dibromoflavone] | 19 | 18.6 ± 2.18 | 22.7
O=c1cc(-c2ccccc2)oc2ccccc12 [Flavone 6, Flavone, reference compound] | 1000 |  | 
O=c1cc(-c2cccc(Cl)c2)oc2ccccc12 [Compound A2, 3'-chloroflavone] | 614 | 614 ± 32.7 | 665

From patent EP0973516B1, “USE OF HALO AND/OR NITRO-SUBSTITUTED FLAVONOIDS AS ANXYOLITICS” (University of Strathclyde, priority 1997, dated 1998)
